Legend:
[1] = test system: intense, bilateral pain in both feet; experiment: Case report: patient with bilateral foot pain, oral drug treatment; type: in vivo, human patient; details: for decrease in pain: foot pain from stretched plantar fascia, earlier drug treatments
Description: Additionally, the patient was treated with topical lidocaine and with a tens machine.

[2] = test system: intense, bilateral pain in both feet; experiment: Case report: same foot-pain patient, topical application in a cream; type: in vivo, human patient; details: applied topically in a cream
[3] = test system: pain in patient with metastatic cancer; experiment: Case report: second patient with metastatic cancer pain; type: in vivo, human patient
Text: A second patient with metastatic cancer was also experiencing pain and had reported little or no relief from common analgesics.

[4] = has been reported; cited from earlier work
[5] = may be eliminated more slowly in obese individuals; cited from earlier work

Question: Which results are given for `Cc1ccc(-c2nc3ccc(C)cn3c2CC(=O)N(C)C)cc1` [AMBIEN, N,N,6-trimethyl-2-p-tolyl-imidazo[1,2-a]pyridine-3-acetamide]?
Answer: duration of pain abatement ([1]; obese person, 10 mg H.S.): 12 to 14 h; other foot pains (arch, heel, cuboid area) ([1]; person): ameliorated; effective dosage ([1]; person, 10 mg H.S.): about 0.08 mg per kg; abatement of pain ([1]; person, 10 mg H.S., able to walk prior to retiring): noticeable abatement of pain; pain relief after topical application [2]: reported pain relief; analgesic effect [3]: marked analgesic effect; time in which metabolized [4]: 6 to 8 h; lipophilicity [5]: lipophilic

Question: Which decrease in pain ([1]; person) does the source give for `CN(C)CCC=C1c2ccccc2CCc2ccccc21` [Elavil, amitryptiline] here?
Answer: The decrease in pain was “only the latter showing any decrease in pain”.

Question: With `Nc1nnc(-c2cccc(Cl)c2Cl)c(N)n1` [Lamictal] as the compound, how does the decrease in pain ([1]; person) read?
Answer: Its decrease in pain is “only the latter showing any decrease in pain”.

Question: Which decrease in pain ([1]; person) does the source give for `NCC1(CC(=O)O)CCCCC1` [Neurontin] here?
Answer: Its decrease in pain is “only the latter showing any decrease in pain”.

Question: Which decrease in pain ([1]; person) does the source give for `CNCCC=C1c2ccccc2CCc2ccccc21` [Parmelar, nortryptiline] here?
Answer: Its decrease in pain is “only the latter showing any decrease in pain”.

Question: For `CC1(C)O[C@@H]2[C@@H](CO[C@@]3(COS(N)(=O)=O)OC(C)(C)O[C@@H]23)O1` [Topamax], which decrease in pain ([1]; person) is on record?
Answer: Its decrease in pain is “only the latter showing any decrease in pain”.

Question: Which decrease in pain ([1]; person) does the source give for `COc1cccc(C2(O)CCCCC2CN(C)C)c1` (centres unmarked) [Ultram] here?
Answer: Its decrease in pain is “only the latter showing any decrease in pain”.

Source: US20040204443A1, “Method for inducing pain relief using imidazo[1,2-a]pyridine derivatives” (priority 2003, published 2004)
